Results on 31 compounds are retold here after patent publication US20090209536A1, “AMINOQUINAZOLINE CANNABINOID RECEPTOR MODULATORS FOR TREATMENT OF DISEASE” (KALYPSYS, INC., priority 2007, published 2009).

A value given as a limit tells only on which side of the number the result lay.

Assay [1] has as its target T1, human cannabinoid receptor type 2 (Homo sapiens, UniProt P34972).
T1 construct: expressed in transfected cells; membrane preparation
As to the kind of experiment: Human CB2 Radioligand Binding Assay. The settings on record: competition with [3H] CP-55,940; membranes from stably transfected CHO CB2 cells; read-out: CB2 Ligand Binding Asssay EC50. In outline:
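Test compounds (10 uM final, or dose-response) competed with [3H]CP-55,940, used at the Kd determined per membrane lot, for binding to stable human CB2-CHO membranes over 90 min at 30° C in pH 7.4 Tris/EGTA/MgCl2/BSA buffer. GF/C filtration then scintillation counting; 100 nM CP-55,940 defined 100% efficacy.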

Assay [2] concerns the target T2, human cannabinoid receptor type 1 (Homo sapiens, UniProt P21554).
T2 construct: purchased Perkin Elmer RBHCB1M; host or cells: HEK 293 EBNA cells
As to the kind of experiment: Human CB1 Radioligand Binding Assay (basis of selectivity, CB2 vs. CB1). The note with it: CB1: HEK 293 EBNA cells expressing human CB1; CB2: CHO CB2 membranes. Here is the method:
2. Human CB1 Radioligand Binding Assay
The incubation buffer was composed of 50 mM Tris-HCl pH 7.4, 2.5 mM EDTA, 5 mM MgCl2, 5.0 mg/ml fatty acid free BSA and the wash buffer was composed of 50 mM Tris-HCl pH 7.4, 2.5 mM EDTA, 5 mM MgCl2, 0.5 mg/ml fatty acid free BSA.

T1 sequence (P34972 whole entry): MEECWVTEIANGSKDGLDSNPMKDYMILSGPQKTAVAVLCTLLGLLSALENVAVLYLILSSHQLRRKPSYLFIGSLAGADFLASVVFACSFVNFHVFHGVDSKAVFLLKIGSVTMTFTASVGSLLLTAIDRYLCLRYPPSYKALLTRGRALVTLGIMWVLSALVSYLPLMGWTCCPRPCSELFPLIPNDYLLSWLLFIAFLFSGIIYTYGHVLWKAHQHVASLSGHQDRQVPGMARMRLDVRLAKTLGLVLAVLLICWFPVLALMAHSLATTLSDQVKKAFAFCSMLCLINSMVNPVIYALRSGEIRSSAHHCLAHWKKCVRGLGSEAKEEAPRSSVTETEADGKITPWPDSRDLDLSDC
T2 sequence (P21554 whole entry): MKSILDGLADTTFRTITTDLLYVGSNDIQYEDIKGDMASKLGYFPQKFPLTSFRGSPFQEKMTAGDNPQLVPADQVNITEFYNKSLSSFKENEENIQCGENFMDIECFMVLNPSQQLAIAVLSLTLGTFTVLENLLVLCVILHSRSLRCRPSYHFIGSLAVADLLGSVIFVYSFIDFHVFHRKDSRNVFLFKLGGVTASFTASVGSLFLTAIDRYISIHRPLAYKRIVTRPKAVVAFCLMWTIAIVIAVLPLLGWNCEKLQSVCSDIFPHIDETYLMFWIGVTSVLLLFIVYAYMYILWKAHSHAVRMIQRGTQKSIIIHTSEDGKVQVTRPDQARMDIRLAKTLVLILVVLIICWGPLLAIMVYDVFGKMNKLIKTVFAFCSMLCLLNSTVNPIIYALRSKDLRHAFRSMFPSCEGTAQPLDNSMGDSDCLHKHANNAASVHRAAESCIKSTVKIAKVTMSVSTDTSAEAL

`CC(=O)N1CCN(c2nc(-c3ccccc3Cl)nc3cccc(Cl)c23)CC1` [Example 265, 1-(4-(5-Chloro-2-(2-chlorophenyl)quinazolin-4-yl)piperazin-1-yl)ethanone]: the EC50 in assay [1] is below 1000 nM. The “Selectivity, CB2 vs. CB1” value in assay [2] was “+ (+ indicates > 10−fold)”.
For the compound `CCOC(=O)N1CCN(c2nc(-c3ccccc3Cl)nc3cccc(Cl)c23)CC1` [Example 266, Ethyl 4-(5-chloro-2-(2-chlorophenyl)quinazolin-4-yl)piperazine-1-carboxylate], the EC50 in assay [1] was below 1000 nM. In assay [2], the “Selectivity, CB2 vs. CB1” value was “+ (+ indicates > 10−fold)”.
Turning to `Clc1ccccc1-c1nc(N2CCCC2)c2c(Cl)cccc2n1` [Example 267, 5-Chloro-2-(2-chlorophenyl)-4-(pyrrolidin-1-yl)quinazoline], the EC50 in assay [1] was below 1000 nM. For the same compound, in assay [2], the “Selectivity, CB2 vs. CB1” value is reported as “+ (+ indicates > 10−fold)”.
The matching figures for `CC(=O)N1CCN(c2nc(-c3ccccc3Cl)nc3ccc(F)cc23)CC1` [Example 268, 1-(4-(2-(2-Chlorophenyl)-6-fluoroquinazolin-4-yl)piperazin-1-yl)ethanone]: below 1000 nM and “− (− indicates ≦ 10−fold)”.
The matching figures for `CCOC(=O)N1CCN(c2nc(-c3ccccc3Cl)nc3ccc(F)cc23)CC1` [Example 269, Ethyl 4-(2-(2-chlorophenyl)-6-fluoroquinazolin-4-yl)piperazine-1-carboxylate]: below 1000 nM and “+ (+ indicates > 10−fold)”.
Turning to `Fc1ccc2nc(-c3ccccc3Cl)nc(N3CCCC3)c2c1` [Example 270, 2-(2-Chlorophenyl)-6-fluoro-4-(pyrrolidin-1-yl)quinazoline], the EC50 in assay [1] is above 1000 nM. Besides, the “Selectivity, CB2 vs. CB1” value in assay [2] was “− (− indicates ≦ 10−fold)”.
Consider `CC(=O)N1CCN(c2nc(-c3ccccc3F)nc3ccc(Cl)cc23)CC1` [Example 271, 1-(4-(6-Chloro-2-(2-fluorophenyl)quinazolin-4-yl)piperazin-1-yl)ethanone], for which the EC50 in assay [1] is below 1000 nM. In addition, in assay [2], the “Selectivity, CB2 vs. CB1” value is reported as “− (− indicates ≦ 10−fold)”.
With `CCOC(=O)N1CCN(c2nc(-c3ccccc3F)nc3ccc(Cl)cc23)CC1` [Example 272, Ethyl 4-(6-chloro-2-(2-fluorophenyl)quinazolin-4-yl)piperazine-1-carboxylate], in assay [1], the EC50 is above 1000 nM. For the same compound, in assay [2], the “Selectivity, CB2 vs. CB1” value was “− (− indicates ≦ 10−fold)”.
`Fc1ccccc1-c1nc(N2CCCC2)c2cc(Cl)ccc2n1` [Example 273, 6-Chloro-2-(2-fluorophenyl)-4-(pyrrolidin-1-yl)quinazoline]: the EC50 in assay [1] was below 1000 nM. Moreover, in assay [2], the “Selectivity, CB2 vs. CB1” value is reported as “− (− indicates ≦ 10−fold)”.
For the compound `COc1ccc2nc(-c3ccccc3F)nc(N3CCN(C(C)=O)CC3)c2c1` [Example 274, 1-(4-(2-(2-Fluorophenyl)-6-methoxyquinazolin-4-yl)piperazin-1-yl)ethanone], the EC50 in assay [1] is below 1000 nM. For the same compound, the “Selectivity, CB2 vs. CB1” value in assay [2] was “− (− indicates ≦ 10−fold)”.
The corresponding values for `CCOC(=O)N1CCN(c2nc(-c3ccccc3F)nc3ccc(OC)cc23)CC1` [Example 275, Ethyl 4-(2-(2-fluorophenyl)-6-methoxyquinazolin-4-yl)piperazine-1-carboxylate] are above 1000 nM and “+ (+ indicates > 10−fold)”.
For `COc1ccc2nc(-c3ccccc3F)nc(N3CCCC3)c2c1` [Example 276, 2-(2-Fluorophenyl)-6-methoxy-4-(pyrrolidin-1-yl)quinazoline], the EC50 in assay [1] was above 1000 nM. Moreover, the “Selectivity, CB2 vs. CB1” value in assay [2] is reported as “− (− indicates ≦ 10−fold)”.
For `CC(=O)N1CCN(c2nc(-c3ccc(C(C)(C)C)cc3)nc3ccc(Cl)cc23)CC1` [Example 277, 1-(4-(2-(4-tert-Butylphenyl)-6-chloroquinazolin-4-yl)piperazin-1-yl)ethanone], the EC50 in assay [1] is above 1000 nM. Further, the “Selectivity, CB2 vs. CB1” value in assay [2] is on record as “− (− indicates ≦ 10−fold)”.
For `CC(C)(C)c1ccc(-c2nc(N3CCCC3)c3cc(Cl)ccc3n2)cc1` [Example 278, 2-(4-tert-Butylphenyl)-6-chloro-4-(pyrrolidin-1-yl)quinazoline], the EC50 in assay [1] was below 1000 nM. The “Selectivity, CB2 vs. CB1” value in assay [2] is “− (− indicates ≦ 10−fold)”.
As for `CCOC(=O)N1CCN(c2nc(-c3ccccc3F)nc3ccccc23)CC1` [Example 279, Ethyl 4-(2-(2-fluorophenyl)quinazolin-4-yl)piperazine-1-carboxylate], the EC50 in assay [1] is below 1000 nM. Moreover, the “Selectivity, CB2 vs. CB1” value in assay [2] is recorded as “+ (+ indicates > 10−fold)”.
The corresponding values for `CC(=O)N1CCN(c2nc(-c3ccccc3F)nc3cccc(F)c23)CC1` [Example 280, 1-(4-(5-Fluoro-2-(2-fluorophenyl)quinazolin-4-yl)piperazin-1-yl)ethanone] are below 1000 nM and “+ (+ indicates > 10−fold)”.
For the compound `CCOC(=O)N1CCN(c2nc(-c3ccccc3F)nc3cccc(F)c23)CC1` [Example 281, Ethyl 4-(5-fluoro-2-(2-fluorophenyl)quinazolin-4-yl)piperazine-1-carboxylate], the EC50 in assay [1] is below 1000 nM. For the same compound, the “Selectivity, CB2 vs. CB1” value in assay [2] is “+ (+ indicates > 10−fold)”.
As to `Fc1ccccc1-c1nc(N2CCCC2)c2c(F)cccc2n1` [Example 282, 5-Fluoro-2-(2-fluorophenyl)-4-(pyrrolidin-1-yl)quinazoline], the EC50 in assay [1] was below 1000 nM. Also, the “Selectivity, CB2 vs. CB1” value in assay [2] is recorded as “+ (+ indicates > 10−fold)”.
The corresponding values for `CC(C)CC(=O)N1CCN(c2nc(-c3ccccc3Cl)nc3cccc(Cl)c23)CC1` [Example 283, 1-(4-(5-Chloro-2-(2-chlorophenyl)quinazolin-4-yl)piperazin-1-yl)-3-methylbutan-1-one] are above 1000 nM and “− (− indicates ≦ 10−fold)”.
With `CCCNC(=O)N1CCN(c2nc(-c3ccccc3Cl)nc3cccc(Cl)c23)CC1` [Example 284, 4-(5-Chloro-2-(2-chlorophenyl)quinazolin-4-yl)-N-propylpiperazine-1-carboxamide], the EC50 in assay [1] was above 1000 nM. Also, the “Selectivity, CB2 vs. CB1” value in assay [2] is on record as “− (− indicates ≦ 10−fold)”.
On to `CCCS(=O)(=O)N1CCN(c2nc(-c3ccccc3Cl)nc3cccc(Cl)c23)CC1` [Example 285, 5-Chloro-2-(2-chlorophenyl)-4-(4-(propylsulfonyl)piperazin-1-yl)quinazoline], for which the EC50 in assay [1] is above 1000 nM. Further, the “Selectivity, CB2 vs. CB1” value in assay [2] is recorded as “− (− indicates ≦ 10−fold)”.
Take `CCOC(=O)N1CCN(c2nc(Nc3ccccc3)nc3cc(C(C)(C)C)ccc23)CC1` [Example 286, Ethyl 4-(7-tert-butyl-2-(phenylamino)quinazolin-4-yl)piperazine-1-carboxylate]: in assay [1], the 50% effective concentration (EC50) is below 1000 nM. Moreover, in assay [2], the “Selectivity, CB2 vs. CB1” value was “+ (+ indicates > 10−fold)”.
For the compound `CC(C)(C)c1ccc2c(N3CCCC3)nc(Nc3ccccc3)nc2c1` [Example 287, 7-tert-Butyl-N-phenyl-4-(pyrrolidin-1-yl)quinazolin-2-amine], in assay [1], the EC50 is below 1000 nM. The “Selectivity, CB2 vs. CB1” value in assay [2] is given as “+ (+ indicates > 10−fold)”.
As to `CC(C)(C)c1ccc2c(N3CCCC3)nc(Nc3ccc(F)cc3F)nc2c1` [Example 288, 7-tert-Butyl-N-(2,4-difluorophenyl)-4-(pyrrolidin-1-yl)quinazolin-2-amine], in assay [1], the EC50 was below 1000 nM. Also, the “Selectivity, CB2 vs. CB1” value in assay [2] is “+ (+ indicates > 10−fold)”.
The matching figures for `CC(C)(C)c1ccc2c(N3CCCC3)nc(Nc3ccc(F)c(F)c3)nc2c1` [Example 289, 7-tert-Butyl-N-(3,4-difluorophenyl)-4-(pyrrolidin-1-yl)quinazolin-2-amine]: below 1000 nM and “− (− indicates ≦ 10−fold)”.
The matching figures for `CC(C)(C)c1ccc2c(N3CCCC3)nc(Nc3cccc(Cl)c3)nc2c1` [Example 290, 7-tert-Butyl-N-(3-chlorophenyl)-4-(pyrrolidin-1-yl)quinazolin-2-amine]: below 1000 nM and “+ (+ indicates > 10−fold)”.
On to `O=S(=O)(NCc1nc(N2CCOCC2)c2ccccc2n1)c1ccc(Cl)cc1Cl` [Example 294, 2,4-Dichloro-N-((4-morpholinoquinazolin-2-yl)methyl)benzenesulfonamide], for which the EC50 in assay [1] was above 1000 nM. In assay [2], the “Selectivity, CB2 vs. CB1” value was “− (− indicates ≦ 10−fold)”.
In the case of `COc1cc2nc(Oc3ccc(C(C)(C)C)cc3)nc(N3CCCC3)c2cc1OC` [Example 296, 2-(4-tert-Butylphenoxy)-6,7-dimethoxy-4-(pyrrolidin-1-yl)quinazoline], in assay [1], the EC50 was above 1000 nM. The “Selectivity, CB2 vs. CB1” value in assay [2] was “− (− indicates ≦ 10−fold)”.
As for `COc1ccc(Oc2nc(N3CCCC3)c3cc(OC)c(OC)cc3n2)cc1` [Example 297, 6,7-Dimethoxy-2-(4-methoxyphenoxy)-4-(pyrrolidin-1-yl)quinazoline], in assay [1], the EC50 is above 1000 nM. The “Selectivity, CB2 vs. CB1” value in assay [2] is recorded as “− (− indicates ≦ 10−fold)”.
With `COc1cc2nc(Nc3ccc(C(C)(C)C)cc3)nc(N3CCCC3)c2cc1OC` [Example 298, N-(4-tert-butylphenyl)-6,7-dimethoxy-4-(pyrrolidin-1-yl)quinazolin-2-amine], in assay [1], the EC50 is above 1000 nM. Also, the “Selectivity, CB2 vs. CB1” value in assay [2] is given as “− (− indicates ≦ 10−fold)”.
For the compound `O=S(=O)(NCc1nc(N2CCCC2)c2ccccc2n1)c1ccc2ccccc2c1` [Example 299, N-((4-(Pyrrolidin-1-yl)quinazolin-2-yl)methyl)naphthalene-2-sulfonamide], in assay [1], the EC50 was above 1000 nM. Moreover, the “Selectivity, CB2 vs. CB1” value in assay [2] is on record as “+ (+ indicates > 10−fold)”.

The EC50 is the concentration needed to bring the measured effect to its halfway point.
